Assay results taken from patent publication US20180250280A1 (BAYER PHARMA AKTIENGESELLSCHAFT, priority 2015, published 2018).

What was measured:
[1] = target: T1, human factor XIa (Homo sapiens, UniProt P03951); test: Measurement of FXIa inhibition (fluorogenic peptide substrate, AMC cleavage); assay type: biochemical; settings: factor XIa from Kordia 0.45 nM; substrate Boc-Glu(OBzl)-Ala-Arg-AMC 10 μM; 30 min at 22° C.; in some cases averages from multiple determinations
T1 construct: purchased Kordia
T1 sequence (P03951 388-625 limits assumed): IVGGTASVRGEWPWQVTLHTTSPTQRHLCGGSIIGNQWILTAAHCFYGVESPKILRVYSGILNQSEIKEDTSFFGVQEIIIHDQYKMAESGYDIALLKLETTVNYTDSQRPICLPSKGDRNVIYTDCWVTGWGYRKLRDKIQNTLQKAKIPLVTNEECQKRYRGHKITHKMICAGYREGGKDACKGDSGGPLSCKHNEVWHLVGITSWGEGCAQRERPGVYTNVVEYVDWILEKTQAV
T1 sequence (P03951 19-387 partner limits assumed): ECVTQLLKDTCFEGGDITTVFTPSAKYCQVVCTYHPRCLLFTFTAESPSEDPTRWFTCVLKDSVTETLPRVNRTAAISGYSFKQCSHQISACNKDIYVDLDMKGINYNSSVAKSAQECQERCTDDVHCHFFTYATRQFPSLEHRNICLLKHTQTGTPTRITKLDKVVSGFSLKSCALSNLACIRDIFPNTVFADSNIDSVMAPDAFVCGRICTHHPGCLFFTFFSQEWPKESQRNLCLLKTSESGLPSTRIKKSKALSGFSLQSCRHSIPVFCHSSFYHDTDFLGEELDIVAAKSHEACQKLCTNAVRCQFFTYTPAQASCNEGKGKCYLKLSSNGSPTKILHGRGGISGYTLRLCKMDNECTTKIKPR

[2] = target: T2, human plasma kallikrein (Homo sapiens, UniProt P03952); test: Determination of the plasma kallikrein activity (fluorogenic peptide substrate, AMC cleavage); assay type: biochemical; settings: plasma kallikrein from Kordia 0.6 nM; substrate H-Pro-Phe-Arg-AMC 10 μM; 30 min at 22° C.; in some cases averages from multiple determinations
T2 construct: purchased Kordia
T2 sequence (P03952 391-638 limits assumed): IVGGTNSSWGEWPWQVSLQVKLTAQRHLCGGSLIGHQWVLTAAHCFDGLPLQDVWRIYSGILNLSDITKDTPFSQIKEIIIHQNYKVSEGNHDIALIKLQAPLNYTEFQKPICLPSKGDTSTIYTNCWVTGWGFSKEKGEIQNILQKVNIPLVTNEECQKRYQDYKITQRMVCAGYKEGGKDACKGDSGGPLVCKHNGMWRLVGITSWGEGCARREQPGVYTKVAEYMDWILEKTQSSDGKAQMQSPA
T2 sequence (P03952 20-390 partner limits assumed): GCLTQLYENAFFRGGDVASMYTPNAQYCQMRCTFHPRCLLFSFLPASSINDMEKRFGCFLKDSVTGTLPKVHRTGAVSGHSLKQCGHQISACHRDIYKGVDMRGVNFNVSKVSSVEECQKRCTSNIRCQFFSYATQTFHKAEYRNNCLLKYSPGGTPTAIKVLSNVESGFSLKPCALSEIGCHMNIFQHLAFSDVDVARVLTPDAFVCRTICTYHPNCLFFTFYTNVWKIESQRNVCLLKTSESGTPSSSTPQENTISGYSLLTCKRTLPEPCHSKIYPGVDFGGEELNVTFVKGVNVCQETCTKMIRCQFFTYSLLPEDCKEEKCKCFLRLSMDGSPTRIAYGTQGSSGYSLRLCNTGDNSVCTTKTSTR
How it was run: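 Kallikrein cleavage of H-Pro-Phe-Arg-AMC was followed by AMC fluorescence (ex 360, em 460) after 15 min enzyme–compound preincubation. IC50 was derived versus DMSO controls over final concentrations of 50 μM to 0.00013 μM.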

Row | Structure (SMILES) | IC50 [1] [nM] | IC50 [2] [nM]
1 | CNC(=O)c1ccc(NC(=O)C(CC2COCCO2)n2cc(OC)c(-c3cc(Cl)ccc3OCC(F)(F)F)cc2=O)cn1 (stereo not shown) [Example 19, 5-{[2-{4-[5-Chloro-2-(2,2,2-trifluoroethoxy)phenyl]-5-methoxy-2-oxopyridin-1(2H)-yl}-3-(1,4-dioxan-2-yl)propanoyl]amino}-N-methylpyridine-2-carboxamide] | 3.4 | 38
2 | COCCC(C(=O)Nc1ccc(C(=O)O)cc1)n1cc(OC)c(-c2cc(Cl)ccc2OCC(F)(F)F)cc1=O (single isomer, unassigned) [Example 2, 4-[(2-{4-[5-Chloro-2-(2,2,2-trifluoroethoxy)phenyl]-5-methoxy-2-oxopyridin-1(2H)-yl}-4-methoxybutanoyl)amino]benzoic acid] | 0.28 | 15
3 | CNC(=O)c1ccc(NC(=O)C(C[C@@H]2CCCCO2)n2cc(OC)c(-c3cc(Cl)ccc3OCC(F)(F)F)cc2=O)cn1 (stereo partly drawn) [Example 52, 5-[(2-{4-[5-Chloro-2-(2,2,2-trifluoroethoxy)phenyl]-5-methoxy-2-oxopyridin-1(2H)-yl}-3-[(2S)-tetrahydro-2H-pyran-2-yl]propanoyl)amino]-N-methylpyridine-2-carboxamide] | 5.1 | 82
4 | CNC(=O)c1ccc(NC(=O)C(C[C@H]2CCCCO2)n2cc(OC)c(-c3cc(Cl)ccc3OCC(F)(F)F)cc2=O)cn1 (stereo partly drawn) [Example 22, 5-[(2-{4-[5-Chloro-2-(2,2,2-trifluoroethoxy)phenyl]-5-methoxy-2-oxopyridin-1(2H)-yl}-3-[(2R)-tetrahydro-2H-pyran-2-yl]propanoyl)amino]-N-methylpyridine-2-carboxamide] | 18 | 170
5 | COc1cn(C(CCOC(C)(C)C)C(=O)Nc2ccc(C(N)=O)c(F)c2)c(=O)cc1-c1cc(Cl)ccc1OCC(F)(F)F (racemic) [Example 10, 4-[(4-tert-Butoxy-2-{4-[5-chloro-2-(2,2,2-trifluoroethoxy)phenyl]-5-methoxy-2-oxopyridin-1(2H)-yl}butanoyl)amino]-2-fluorobenzamide] | 15 | 77
6 | COc1cc(NC(=O)C(C[C@@H]2CCCCO2)n2cc(OC)c(-c3cc(Cl)ccc3OCC(F)(F)F)cc2=O)ccc1C(=O)O (stereo partly drawn) [Example 76, 4-({2-{4-[5-Chloro-2-(2,2,2-trifluoroethoxy)phenyl]-5-methoxy-2-oxopyridin-1(2H)-yl}-3-[(2S)-tetrahydro-2H-pyran-2-yl]propanoyl}amino)-2-methoxybenzoic acid] | 2.2 | 150
7 | COc1cn(C(CCOC(C)(C)C)C(=O)Nc2ccc3nc(C(=O)O)cn3c2)c(=O)cc1-c1cc(Cl)ccc1OCC(F)(F)F (racemic) [Example 73, 6-{[4-tert-Butoxy-2-{4-[5-chloro-2-(2,2,2-trifluoroethoxy)phenyl]-5-methoxy-2-oxopyridin-1(2H)-yl}butanoyl]amino}imidazo[1,2-a]pyridine-2-carboxylic acid] | 2 | 18
8 | COc1cn(C(Cc2ccn(C)n2)C(=O)Nc2ccc(C(N)=O)c(F)c2)c(=O)cc1-c1cc(Cl)ccc1OCC(F)(F)F (racemic) [Example 16, 4-{[2-{4-[5-Chloro-2-(2,2,2-trifluoroethoxy)phenyl]-5-methoxy-2-oxopyridin-1 (2H)-yl}-3-(1-methyl-1H-pyrazol-3-yl)propanoyl]amino}-2-fluorobenzamide] | 10 | 67
9 | COc1cn(C(CC2COCCO2)C(=O)Nc2ccc(C(N)=O)c(F)c2)c(=O)cc1-c1cc(Cl)ccc1OCC(F)F (stereo not shown) [Example 32, 4-{[2-{4-[5-Chloro-2-(2,2-difluoroethoxy)phenyl]-5-methoxy-2-oxopyridin-1(2H)-yl}-3-(1,4-dioxan-2-yl)propanoyl]amino}-2-fluorobenzamide] | 9.7 | 160
10 | CNC(=O)c1ccc(NC(=O)C(CC2COCCO2)n2cc(OC)c(-c3cc(Cl)ccc3OCC(F)(F)F)cc2=O)cn1 (single isomer, unassigned) [Example 63, 5-{[2-{4-[5-Chloro-2-(2,2,2-trifluoroethoxy)phenyl]-5-methoxy-2-oxopyridin-1(2H)-yl}-3-(1,4-dioxan-2-yl)propanoyl]amino}-N-methylpyridine-2-carboxamide] | 1.3 | 14
11 | COc1cn(C(CCOC(C)(C)C)C(=O)Nc2ccc(C(=O)O)cc2)c(=O)cc1-c1cc(Cl)ccc1OCC(F)(F)F (single isomer, unassigned) [Example 8, 4-[(4-tert-Butoxy-2-{4-[5-chloro-2-(2,2,2-trifluoroethoxy)phenyl]-5-methoxy-2-oxopyridin-1(2H)-yl}butanoyl)amino]benzoic acid] | 0.94 | 19
12 | COc1cc(NC(=O)[C@H](CCOC(C)(C)C)n2cc(OC)c(-c3cc(Cl)ccc3OCC(F)(F)F)cc2=O)ccc1C(=O)O (single isomer, unassigned) [Example 70, 4-{[4-tert-Butoxy-2-{4-[5-chloro-2-(2,2,2-trifluoroethoxy)phenyl]-5-methoxy-2-oxopyridin-1(2H)-yl}butanoyl]amino}-2-methoxybenzoic acid] | 1.3 | 58
13 | COc1cn(C(CCOC(C)C)C(=O)Nc2ccc(C(N)=O)c(F)c2)c(=O)cc1-c1cc(Cl)ccc1OCC(F)(F)F (racemic) [Example 41, 4-[(2-{4-[5-Chloro-2-(2,2,2-trifluoroethoxy)phenyl]-5-methoxy-2-oxopyridin-1(2H)-yl}-4-isopropoxybutanoyl)amino]-2-fluorobenzamide] | 25 | 130
14 | COc1cn(C(C[C@@H]2CCCCO2)C(=O)Nc2ccc3nc(C(=O)O)cn3c2)c(=O)cc1-c1cc(Cl)ccc1OCC(F)(F)F (stereo partly shown) [Example 77] | 2.2 | 23
15 | CCNC(=O)c1ccc(NC(=O)C(CCOC2(C)CCC2)n2cc(OC)c(-c3cc(Cl)ccc3OCC(F)(F)F)cc2=O)cn1 (racemic) [Example 61, 5-[[2-[4-[5-Chloro-2-(2,2,2-trifluoroethoxy)phenyl]-5-methoxy-2-oxo-1-pyridyl]-4-(1-methylcyclobutoxy)butanoyl]amino]-N-ethylpyridine-2-carboxamide] | 43 | 150
16 | COCCC(C(=O)Nc1ccc(C(=O)O)cc1)n1cc(OC)c(-c2cc(Cl)ccc2OCC(F)(F)F)cc1=O (racemic) [Example 1, 4-[(2-{4-[5-Chloro-2-(2,2,2-trifluoroethoxy)phenyl]-5-methoxy-2-oxopyridin-1(2H)-yl}-4-methoxybutanoyl)amino]benzoic acid] | 1.2 | 55
17 | COc1cn(C(C[C@H]2CCCCO2)C(=O)Nc2ccc(C(N)=O)c(F)c2)c(=O)cc1-c1cc(Cl)ccc1OCC(F)(F)F (stereo partly drawn) [Example 23, 4-[(2-{4-[5-Chloro-2-(2,2,2-trifluoroethoxy)phenyl]-5-methoxy-2-oxopyridin-1(2H)-yl}-3-[(2R)-tetrahydro-2H-pyran-2-yl]propanoyl)amino]-2-fluorobenzamide] | 34 | 340
18 | COc1cn(C(CC2COCCO2)C(=O)Nc2ccc3nn(C)cc3c2)c(=O)cc1-c1cc(Cl)ccc1OCCF (stereo not shown) [Example 48, 2-{4-[5-Chloro-2-(2-fluoroethoxy)phenyl]-5-methoxy-2-oxopyridin-1(2H)-yl}-3-(1,4-dioxan-2-yl)-N-(2-methyl-2H-indazol-5-yl)propanamide] | 15 | 150
19 | COc1cn(C(CC2COCCO2)C(=O)Nc2ccc(C(N)=O)c(F)c2)c(=O)cc1-c1cc(Cl)ccc1OCCF (stereo not shown) [Example 47, 4-{[2-{4-[5-Chloro-2-(2-fluoroethoxy)phenyl]-5-methoxy-2-oxopyridin-1(2H)-yl}-3-(1,4-dioxan-2-yl)propanoyl]amino}-2-fluorobenzamide] | 29 | 310
20 | COc1cn(C(CC2COCCO2)C(=O)Nc2ccc(C(=O)O)cc2)c(=O)cc1-c1cc(Cl)ccc1OCC(F)F (stereo not shown) [Example 29, 4-{[2-{4-[5-Chloro-2-(2,2-difluoroethoxy)phenyl]-5-methoxy-2-oxopyridin-1(2H)-yl}-3-(1,4-dioxan-2-yl)propanoyl]amino}benzoic acid] | 1.6 | 80
